This is an account of results in US20220211630A1, “SOLID NANOPARTICLE FORMULATION OF WATER INSOLUBLE PHARMACEUTICAL SUBSTANCES WITH REDUCED OSTWALD RIPENING AND IMMEDIATE DRUG RELEASE FOLLOWING INTRAVENOUS ADMINISTRATION” (priority 2019, published 2022).

In brackets after ≈: the same amount, converted by molar mass. Like-named read-outs stand apart in the source and are kept apart here.

The nature of data set [1]: Drug solubility in supernatant of reconstituted suspension after ultracentrifugation (HPLC). Format: physicochemical. As to conditions: room temperature. Here is the method: The quantities of docetaxel, rapamycin and 17-AAG and human albumin in the supernatant were measured by high performance liquid chromatography (HPLC) and the results are summarized in Table 9.
The quantities of ixabepilone and rapamycin in the supernatant were measured by high performance liquid chromatography (HPLC) and the results are summarized in Table 18.

For data set [2] the following is noted: cited from earlier work.
A further data set addresses human CB1 receptors (Homo sapiens, UniProt P21554). As to conditions: read-out: Affinity; cited from earlier work.
The target in the next data set is human CB2 receptors (Homo sapiens, UniProt P34972). To be noted: read-out: Affinity; cited from earlier work.
human CB2 receptors, sequence (P34972 whole entry): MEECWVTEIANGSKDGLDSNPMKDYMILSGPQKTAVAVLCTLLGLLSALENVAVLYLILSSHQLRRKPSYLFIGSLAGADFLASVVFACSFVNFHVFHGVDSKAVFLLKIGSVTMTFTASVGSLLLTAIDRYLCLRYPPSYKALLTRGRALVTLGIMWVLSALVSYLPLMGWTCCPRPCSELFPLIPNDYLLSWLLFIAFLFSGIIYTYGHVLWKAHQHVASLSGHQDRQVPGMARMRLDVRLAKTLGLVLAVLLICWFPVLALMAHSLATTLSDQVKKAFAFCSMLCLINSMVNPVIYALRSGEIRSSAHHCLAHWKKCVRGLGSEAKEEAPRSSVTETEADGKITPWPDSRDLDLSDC
For data set [3] the following is noted: oral, human gastrointestinal tract; cited from earlier work.
Where [4] appears, read: LBI-0728 (Lot CRX001) reconstituted suspension (2 mg/mL Ixabepilone and 5 mg/mL Rapamycin), 87,000 rpm 1 hour.
[5] abbreviates: LBI-1103 (Lot RAD002) reconstituted suspension (5 mg/mL Docetaxel; 5 mg/mL Rapamycin and 10 mg/mL 17-AAG), 87,000 rpm 1 hour.

human CB1 receptors, sequence (P21554 whole entry): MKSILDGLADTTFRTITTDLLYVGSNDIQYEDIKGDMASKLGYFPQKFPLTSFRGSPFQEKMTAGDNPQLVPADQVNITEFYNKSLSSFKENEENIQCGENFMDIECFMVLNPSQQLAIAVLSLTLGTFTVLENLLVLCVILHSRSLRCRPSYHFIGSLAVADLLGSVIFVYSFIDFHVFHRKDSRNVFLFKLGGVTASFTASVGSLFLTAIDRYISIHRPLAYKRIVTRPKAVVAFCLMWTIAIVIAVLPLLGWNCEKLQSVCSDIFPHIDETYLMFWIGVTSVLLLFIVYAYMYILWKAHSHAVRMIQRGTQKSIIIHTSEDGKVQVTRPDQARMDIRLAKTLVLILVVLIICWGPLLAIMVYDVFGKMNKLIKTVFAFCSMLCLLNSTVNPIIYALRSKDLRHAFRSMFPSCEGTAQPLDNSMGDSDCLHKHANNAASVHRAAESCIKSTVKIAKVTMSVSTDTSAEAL

Take `C/C(=C\c1csc(C)n1)[C@@H]1C[C@@H]2O[C@]2(C)CCC[C@H](C)[C@H](O)[C@@H](C)C(=O)C(C)(C)[C@@H](O)CC(=O)N1` [Ixabepilone]: in data set [1] (setting [4]), the solubility – broadly, the concentration that dissolves in the medium under given conditions – was determined as 407 µg/mL. Further, the Solubility in water result in data set [2] is “about 3.5 mg/L”.
For the molecule `CC(=O)O[C@H]1C(=O)[C@@]2(C)[C@H]([C@H](OC(=O)c3ccccc3)[C@]3(O)C[C@H](OC(=O)[C@H](O)[C@@H](NC(=O)c4ccccc4)c4ccccc4)C(C)=C1C3(C)C)[C@]1(OC(C)=O)CO[C@@H]1C[C@@H]2O` [Paclitaxel], the “Drug Solubility in Supernatant” value in data set [1] (LBI-0609 (Lot CEP002) reconstituted suspension (Everolimus and 5 mg/mL Paclitaxel), 87,000 rpm 1 hour) is 82 µg/mL. Also, in data set [2], the Solubility in water entry is recorded as “about 0.4 mg/L”.
Take `CO[C@H]1C(=O)[C@]2(C)[C@@H](OC)C[C@H]3OC[C@@]3(OC(C)=O)[C@H]2[C@H](OC(=O)c2ccccc2)[C@]2(O)C[C@H](OC(=O)[C@H](O)[C@@H](NC(=O)OC(C)(C)C)c3ccccc3)C(C)=C1C2(C)C` [cabazitaxel]: the Solubility in water result in data set [2] was “about 8 mg/L”.
As for `CO[C@H]1C[C@@H]2CC[C@@H](C)[C@@](O)(O2)C(=O)C(=O)N2CCCC[C@H]2C(=O)O[C@H]([C@H](C)C[C@@H]2CC[C@@H](O)[C@H](OC)C2)CC(=O)[C@H](C)/C=C(\C)[C@@H](O)[C@@H](OC)C(=O)[C@H](C)C[C@H](C)/C=C/C=C/C=C/1C` [Rapamycin], the figures for the solubility in data set [1] (setting [4]) and in data set [1] (setting [5]) were 22 µg/mL and 19 µg/mL, respectively. Also, the “Solubility in water” value in data set [2] was “insoluble in water”.
In data set [1] (LBI-0609 (Lot CEP002) reconstituted suspension (X mg/mL Everolimus and 5 mg/mL Paclitaxel), 87,000 rpm 1 hour), `CO[C@H]1C[C@@H]2CC[C@@H](C)[C@@](O)(O2)C(=O)C(=O)N2CCCC[C@H]2C(=O)O[C@H]([C@H](C)C[C@@H]2CC[C@@H](OCCO)[C@H](OC)C2)CC(=O)[C@H](C)/C=C(\C)[C@@H](O)[C@@H](OC)C(=O)[C@H](C)C[C@H](C)/C=C/C=C/C=C/1C` [Everolimus, 40-O-(2-Hydroxy)ethyl rapamycin] yielded a solubility of 14 µg/mL (≈ 14.6 µM).
Regarding `CCCCCCC(C)(C)c1cc(O)c2c(c1)OC(C)(C)C1CCC(=O)CC21` (racemic) [Nabilone, (±)-trans-3-(1,1-dimethylheptyl)-6,6a,7,8,10,10a-hexahydro-1-hydroxy-6-6-dimethyl-9H-dibenzo[b,d]pyran-9-one], the figures for the Ki at human CB1 receptors and on human CB2 receptors were 2.2 nM and 1.8 nM, respectively. Further, in data set [2] (pH values ranging from 1.2 to 7.0), the Solubility in water entry is given as “less than 0.5 mg/L”. For the same molecule, in data set [3], the “Absorption when administered orally” value is reported as “completely absorbed”.
In the case of `C=CCNC1=C2C[C@@H](C)C[C@H](OC)[C@H](O)[C@@H](C)/C=C(\C)[C@H](OC(N)=O)[C@@H](OC)/C=C\C=C(/C)C(=O)NC(=CC1=O)C2=O` [Example 17AAG, 17-allylaminogeldanamycin], the solubility in data set [1] (setting [5]) is 108 µg/mL.
For `CC(=O)O[C@@]12CO[C@@H]1C[C@H](O)[C@@]1(C)C(=O)[C@H](O)C3=C(C)[C@@H](OC(=O)[C@H](O)[C@@H](NC(=O)OC(C)(C)C)c4ccccc4)C[C@@](O)([C@@H](OC(=O)c4ccccc4)[C@H]21)C3(C)C` [Docetaxel], the solubility in data set [1] (setting [5]) was found to be 114 µg/mL. The Solubility in water result in data set [2] is “about 14 mg/L”.
